One substance from patent publication US20140031283A1, “ANTICANCER FUSION PROTEIN” (ADAMED SP. Z O.O., priority 2011, published 2014) can be followed below.

What all share (assay type): in vivo
Assay [1] concerns human lung cancer NCI-H460-Luc2. As to the kind of experiment: NCI-H460-Luc2 lung cancer xenograft in Crl:CD1-Foxn1nu 1 mice. To be noted: NCI-H460-Luc2, Crl:CD1-Foxn1nu 1 mice, 10 mg/kg i.v. six times every second day, 30th day. Here is the method: (§1) Antitumor activity of protein preparations was tested in a mouse model of human colon cancer HCT116, human colon cancer Colo205, human colon cancer model SW620, human liver cancer model HepG2, and human lung cancer models NCI-H460 and NCI-H460-Luc2.
(§2) The HCT116 (in mice Crl:CD1-Foxn1^nu 1), Colo205, NCI-H460, NCI-H460-Luc2 cells were maintained in RPMI 1640 medium (Hyclone, Logan, Utah, USA) mixed in the ratio of 1:1 with Opti-MEM (Invitrogen, Cat.22600-134) supplemented with 10% fetal calf serum and 2 mM glutamine. On the day of mice grafting, the cells were detached from the support by washing the cells with trypsin (Invitrogen), then the cells were centrifuged at 1300 rpm, 4° C., 8 min., suspended in HBSS buffer (Hanks medium), counted and diluted to the concentration of 25×10^6 cells/ml.
(§3) Examination of antitumor activity of proteins of the invention was conducted on 7-9 week-old CD-nude (Crl:CD1-Foxn1^nu 1) or 4-6 week-old Crl:SHO-Prkdc^scidHr^hr mice obtained from Charles River Germany. Mice were kept under specific pathogen-free conditions with free access to food and demineralised water (ad libitum). All experiments on animals were carried in accordance with the guidelines: “Interdisciplinary Principles and Guidelines for the Use of Animals in Research. […]

The test system of assay [2] is human colon cancer HCT116. As to the kind of experiment: HCT116 colon cancer xenograft in Crl:SHO-Prkdc^scidHr^hr mice. As to conditions: 65 mg/kg i.v., 10 daily applications with a two-day break, 24th day. The method, then: as §1
The HCT116 (in mice Crl:SHO-Prkdc^scidHr^hr) were alternatively maintained in McCoy's medium (Hyclone, Logan, Utah, USA) supplemented with 10% fetal calf serum and 2 mM glutamine. On the day of mice grafting, the cells were detached from the support by washing the cells with trypsin (Invitrogen), then the cells were centrifuged at 1300 rpm, 4° C., 8 min., suspended in HBSS buffer (Hanks medium), counted and diluted to the concentration of 25×10^6 cells/ml. SW620 cells were maintained in DMEM (HyClone, Logan, Utah, USA) supplemented with 10% fetal calf serum and 2 mM glutamine. On the day of mice grafting, the cells were detached from the support by washing the cells with trypsin (Invitrogen), then the cells were centrifuged at 1300 rpm, 4° C., 8 min., suspended in HBSS buffer (Hanks medium), counted and diluted to the concentration of 25×10^6 cells/ml.
Examination of antitumor activity of proteins of the invention was conducted on 7-9 week-old CD-nude (Crl:CD1-Foxn1^nu 1) or 4-6 week-old Crl:SHO-Prkdc^scidHr^hr mice obtained from Charles River Germany. […]

In assay [3] the test system is human lung cancer NCI-H460. As to the kind of experiment: NCI-H460 lung cancer xenograft in Crl:SHO-PrkdcscidHrhr mice. To be noted: 30 mg/kg i.v. six times every second day, 28th day. Here is the method: as §1, §2, §3

As to “rhTRAIL114-281: recombinant human soluble TRAIL, amino acids 114-281 of hTRAIL, used as the comparative reference”, the “tumor growth inhibition (TGI) relative to the control” value in assay [1] is on record as 53.1%; in assay [2], 38%; in assay [3], 17.5%.
